From paper PMC3813140, “Lipophilicity Examination of Some ACE inhibitors andHydrochlorothiazide on Cellulose in RP Thin-Layer Chromatography” (Iranian Journal of Pharmaceutical Research : IJPR, 2012)

Assay: RP-TLC on cellulose layers, lipophilicity evaluation with water-organic modifier binary solvent systems
Format: physicochemical
Conditions: for hRF / - m (slope, specific hydrophobic surface area) / C0 (hydrophobicity parameter, C0 = - RM0/m) / RM0 (intercept, hydrophobicity parameter): cellulose; for - m (slope, specific hydrophobic surface area) / C0 (hydrophobicity parameter, C0 = - RM0/m) / RM0 (intercept, hydrophobicity parameter): organic modifier 10-30%; for relative lipophilicity among the investigated substances: RP-TLC on cellulose, all mobile phases
Description: The three, water-organic modifier, binary solvent systems were used with different volume fractions. All components of mobile phases were of analytical grade of purity.
The TLC experiments were performed on 10 cm × 10 cm cellulose (Art. 105552, Merck, Germany) layers.
After the development, the detection was performed by exposing the plates to iodine vapour. All investigations were performed at room temperature (22 ± 2 °C).
The RF -values were calculated according to the relationship:
RF = Distance of spot from origin / Distance of mobile phase front from origin
Here, RM-values were calculated for each solute in each mobile phase according to the Bate-Smith and Westall equation ([29]):
RM=log (1/RF-1) (Equation 1)
In an aim to establish the reversed-phase TLC on cellulose, the mobile phase had to be more polar than the cellulose.
The retention behavior of biological active substances investigated in RP-TLC can be presented as the relationship between the RM-values and the content of organic modifier in mobile phase through the linear Equation ([16]):
RM = R^0M + mC (Equation 2)
The value of the intercept, R^0M, represents the lipophilicity of the examined substance and the value of the slope, m, corresponds to the specific hydrophobic surface area of this substance, while C represents the volume fraction of the organic modifier in mobile phase.
By the analogy through the hydrophobicity parameter of φ0 ([6], [7]), previously defined for the HPLC method as the concentration of the organic modifier in the mobile phase for which the distribution of the analyzed substance between the mobile and stationary phase was equal (1:1) another hydrophobicity parameter, C0, can be calculated. The hydrophobicity parameter, C0, represents the volume fraction of the organic modifier in mobile phase where RM = 0 ([11]-[12]) and it can be calculated as C0 = - R^0M / m.

[1] = water-acetone, 10 vol% organic modifier
[2] = water-acetone, 15 vol% organic modifier
[3] = water-acetone, 20 vol% organic modifier
[4] = water-acetone, 25 vol% organic modifier
[5] = water-acetone, 30 vol% organic modifier
[6] = water-ethanol, 10 vol% organic modifier
[7] = water-ethanol, 15 vol% organic modifier
[8] = water-ethanol, 20 vol% organic modifier
[9] = water-ethanol, 25 vol% organic modifier
[10] = water-ethanol, 30 vol% organic modifier
[11] = water-methanol, 10 vol% organic modifier
[12] = water-methanol, 15 vol% organic modifier
[13] = water-methanol, 20 vol% organic modifier
[14] = water-methanol, 25 vol% organic modifier
[15] = water-methanol, 30 vol% organic modifier

CCOC(=O)[C@H](CCc1ccccc1)N[C@H]1CCCN2CCC[C@@H](C(=O)O)N2C1=O [Substance 4, [1S-[1α,9α (R*)]]-9-[[1-(ethoxycarbonyl)-3-phenylpropyl]amino] octahydro-10-oxo-6H-pyridazino [1,2-a] [1,2] diazepine-1-carboxylic acid monohydrate]
hRF [1]: 66 | hRF [2]: 70 | hRF [3]: 73 | hRF [4]: 77 | hRF [5]: 80 | - m (slope, specific hydrophobic surface area) (water-acetone): 1.569 ± 0.001 | hRF [6]: 73 | hRF [7]: 76 | hRF [8]: 79 | hRF [9]: 83 | hRF [10]: 88 | - m (slope, specific hydrophobic surface area) (water-ethanol): 2.109 ± 0.002 | hRF [11]: 60 | hRF [12]: 68 | hRF [13]: 75 | hRF [14]: 80 | hRF [15]: 85 | - m (slope, specific hydrophobic surface area) (water-methanol): 2.858 ± 0.001 | C0 (hydrophobicity parameter, C0 = - RM0/m) (water-methanol): 0.036 | RM0 (intercept, hydrophobicity parameter) (water-methanol): 0.104 ± 0.010

NCCCC[C@H](NC(CCc1ccccc1)C(=O)O)C(=O)N1CCC[C@H]1C(=O)O.O.O (stereo partly drawn) [Substance 3, (S)-1-[N^2-(1-carboxy-3-phenylpropyl)-L-lysyl]-L-proline dihydrate]
relative lipophilicity among the investigated substances: most hydrophilic | hRF [1]: 86 | hRF [2]: 90 | hRF [3]: 92 | hRF [4]: 94 | hRF [5]: 96 | - m (slope, specific hydrophobic surface area) (water-acetone): 2.849 ± 0.001 | hRF [6]: 91 | hRF [7]: 93 | hRF [8]: 95 | hRF [9]: 96 | hRF [10]: 97 | - m (slope, specific hydrophobic surface area) (water-ethanol): 2.533 ± 0.001 | hRF [11]: 85 | hRF [12]: 88 | hRF [13]: 91 | hRF [14]: 92 | hRF [15]: 93 | - m (slope, specific hydrophobic surface area) (water-methanol): 1.871 ± 0.002

CCOC(=O)C(CCc1ccccc1)N[C@@H](C)C(=O)N1CCC[C@H]1C(=O)O (stereo partly drawn) [Substance 1, (S)-1-[N-[1-(ethoxycarbonyl)-3-phenylpropyl]-L-alanyl]-L-proline]
hRF [1]: 78 | hRF [2]: 84 | hRF [3]: 86 | hRF [4]: 89 | hRF [5]: 93 | - m (slope, specific hydrophobic surface area) (water-acetone): 2.671 ± 0.002 | hRF [6]: 81 | hRF [7]: 85 | hRF [8]: 90 | hRF [9]: 92 | hRF [10]: 93 | - m (slope, specific hydrophobic surface area) (water-ethanol): 2.589 ± 0.002 | hRF [11]: 78 | hRF [12]: 80 | hRF [13]: 83 | hRF [14]: 86 | hRF [15]: 88 | - m (slope, specific hydrophobic surface area) (water-methanol): 1.635 ± 0.001

CCOC(=O)[C@H](CCc1ccccc1)N[C@@H](C)C(=O)N1Cc2ccccc2C[C@H]1C(=O)O [Substance 2, [3S-[2[R* (R*)],3R*]]-2-[2-[[1-(ethoxycarbonyl)-3-phenylpropyl]amino]-1-oxopropyl]-1,2,3,4-tetrahydro-3-isoquinolinecarboxylic acid]
relative lipophilicity among the investigated substances: most lipophilic | hRF [1]: 55 | hRF [2]: 60 | hRF [3]: 66 | hRF [4]: 70 | hRF [5]: 73 | - m (slope, specific hydrophobic surface area) (water-acetone): 1.763 ± 0.001 | C0 (hydrophobicity parameter, C0 = - RM0/m) (water-acetone): 0.047 | RM0 (intercept, hydrophobicity parameter) (water-acetone): 0.082 ± 0.020 | hRF [6]: 65 | hRF [7]: 70 | hRF [8]: 74 | hRF [9]: 79 | hRF [10]: 82 | - m (slope, specific hydrophobic surface area) (water-ethanol): 1.974 ± 0.001 | hRF [11]: 53 | hRF [12]: 58 | hRF [13]: 65 | hRF [14]: 68 | hRF [15]: 71 | - m (slope, specific hydrophobic surface area) (water-methanol): 1.721 ± 0.001 | C0 (hydrophobicity parameter, C0 = - RM0/m) (water-methanol): 0.063 | RM0 (intercept, hydrophobicity parameter) (water-methanol): 0.109 ± 0.032

NS(=O)(=O)c1cc2c(cc1Cl)NCNS2(=O)=O [HCTZ, 6-chloro-3,4-dihydro-2H-1,2,4-benzothiadiazine-7-sulfonamide,1,1-dioxide]
hRF [1]: 83 | hRF [2]: 85 | hRF [3]: 88 | hRF [4]: 92 | hRF [5]: 95 | - m (slope, specific hydrophobic surface area) (water-acetone): 2.975 ± 0.004 | hRF [6]: 85 | hRF [7]: 87 | hRF [8]: 90 | hRF [9]: 93 | hRF [10]: 95 | - m (slope, specific hydrophobic surface area) (water-ethanol): 2.697 ± 0.002 | hRF [11]: 80 | hRF [12]: 83 | hRF [13]: 85 | hRF [14]: 90 | hRF [15]: 92 | - m (slope, specific hydrophobic surface area) (water-methanol): 2.366 ± 0.023
